Where a name gives a salt, the structure may show the parent alone.
Biological target: T1, bovine carbonic anhydrase II (Bos taurus, UniProt P00921)
T1 construct: Carbonic Anhydrase Isozyme II from bovine erythrocytes; purchased Sigma Aldrich; host or cells: bovine erythrocytes
Assay: Photochemical labeling of bovine carbonic anhydrase II with pyridinium salt (General Procedure B, LC/MS)
Format: biochemical
Details: trypsin digest
Procedure: General Procedure B: Photochemical Irradiation of Peptides and Proteins: To a 2 mL Pyrex LC/MS vial (Thermo model #03-391-39) were sequentially added solutions containing the desired biomolecule, glutathione (GSH), pyridinium salt, and ammonium acetate (NH4OAc). The resulting solution was diluted to a final volume of 500 μL and then sparged using nitrogen for a minimum of 30 minutes prior to irradiation. The actively sparging solution was then placed in an EvoluChem™ PhotoRedOx Box photoreactor that was equipped with a Kessil, PR160 427 nm LED Lamp and was then irradiated (100% lamp intensity) for the designated time at room temperature while maintaining active sparging. The resultant reaction mixture was then analyzed directly by LC/MS. […]
Labeling of Bovine Carbonic Anhydrase II with Pyridinium Salt 2a (Bovine Carbonic Anhydrase II-2a Conjugate). […] The reaction mixture was directly analyzed by LC/MS using method A and was estimated to have proceeded with 34% conversion and a 4.5:1 mono:di labeled ratio. […]
General Trypsin Digest Protocol B: For non-cystine bridged labeled proteins, a standard trypsin digest was modified as follows. […] The digested mixture was analyzed directly by LC/MS and MS/MS using method C. […]

T1 sequence (P00921 whole entry): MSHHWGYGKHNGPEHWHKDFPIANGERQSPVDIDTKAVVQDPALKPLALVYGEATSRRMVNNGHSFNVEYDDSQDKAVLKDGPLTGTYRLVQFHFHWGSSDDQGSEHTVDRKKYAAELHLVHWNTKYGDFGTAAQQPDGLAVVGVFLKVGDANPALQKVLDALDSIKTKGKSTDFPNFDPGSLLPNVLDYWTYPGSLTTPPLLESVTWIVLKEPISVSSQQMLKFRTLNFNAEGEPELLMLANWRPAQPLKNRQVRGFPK

In the case of `COC(=O)N(C)[n+]1c(C)cc(-c2ccc3cc(OC)ccc3c2)cc1C` [pyridinium salt 2a, 1-((methoxycarbonyl)(methyl)amino)-4-(6-methoxynapthalen-2-yl)-2,6-dimethylpyridin-1-ium tetrafluoroborate], the “Modified Trp” value is reported as “Trp-243”.

— US20240262845A1, “PYRIDINIUM SALTS, METHODS OF MAKING, AND METHODS OF USE” (UNIVERSITY OF WYOMING, priority 2023, published 2024)
